Test results from article PMC10849125 (RSC Chemical Biology, 2023).

Experiments:
[1] = molecular target: HR1–HR2 interaction (MBP-HR1 / ALP-HR2) of SARS-CoV-2 (Severe acute respiratory syndrome coronavirus 2, UniProt P0DTC2); assay: SPICA: inhibition of the HR1–HR2 interaction; type: binding; conditions: for inhibition of the HR1–HR2 interaction of SARS-CoV-2 (in words): negative controls; for IC50: pIC50 ± SD, 20 nM MBP-HR1 coated, 5 nM ALP-HR2, MES pH 6.4, OD630, SD
[2] = system: VeroE6/TMPRSS2 cells; assay: Cytotoxicity, MTT assay; type: cell-based, African green monkey; conditions: mock cell viability, 3 days

Compound	inhibition of the HR1–HR2 interaction of SARS-CoV-2 (in words) [1]	pCC50 ± SD [2]	IC50 [1]
CCC(CC)COC(=O)[C@H](C)N[P@](=O)(OC[C@H]1O[C@@](C#N)(c2ccc3c(N)ncnn23)[C@H](O)[C@@H]1O)Oc1ccccc1 [remdesivir]	no inhibitory effect	4.2 ± 0.1	
CC[C@H](C)[C@H](NC(=O)[C@H](C)NC(=O)[C@H](CCC(=O)O)NC(=O)[C@H](CCC(=O)O)NC(=O)[C@H](CC(C)C)NC(=O)[C@H](CCCCN)NC(=O)[C@H](CCCCN)NC(=O)[C@H](CCSC)NC(=O)[C@H](CCC(=O)O)NC(=O)[C@H](Cc1ccc(O)cc1)NC(=O)[C@H](CCC(=O)O)NC(=O)[C@H](CC(C)C)NC(=O)[C@H](CC(=O)O)NC(=O)[C@H](CC(C)C)NC(=O)[C@H](Cc1ccccc1)NC(=O)[C@@H](NC(=O)[C@@H](NC(=O)[C@H](CC(N)=O)NC(=O)[C@@H](NC(=O)[C@H](CCC(N)=O)NC(=O)[C@H](CC(=O)O)NC(=O)[C@H](CC(C)C)NC(=O)[C@@H](N)CO)[C@@H](C)CC)C(C)C)[C@@H](C)O)C(=O)N[C@@H](CCCCN)C(=O)N[C@@H](CCCCN)C(=O)N[C@@H](CC(C)C)C(=O)N[C@@H](CCC(=O)O)C(=O)N[C@@H](CCC(=O)O)C(=O)N[C@@H](CO)C(=O)N[C@@H](Cc1ccc(O)cc1)C(=O)N[C@H](C(=O)N[C@@H](CC(=O)O)C(=O)N[C@@H](CC(C)C)C(=O)N[C@@H](CCCCN)C(=O)N[C@@H](CCC(=O)O)C(=O)N[C@@H](CC(C)C)C(=O)O)[C@@H](C)CC [EK1]			0.001 µM
Cc1nnnn1N=Cc1ccc(O)c(C(c2ccc(O)cc2)c2cc(C=Nn3nnnc3C)ccc2O)c1 (centres unmarked) [VP-14637]	failed to block the HR1–HR2 interaction		25.1 µM
